Test results: PMC11464771, “Elucidation of Spartina dimethylsulfoniopropionate synthesis genes enables engineering of stress tolerant plants” (Nature Communications, 2024)

T1: MMT from Arabidopsis thaliana (Arabidopsis thaliana, UniProt Q9LTB2)
T1 construct: gene MMT1; recombinant, probably pMALc2x (MBP fusion), E. coli
T1 sequence (Q9LTB2 2-1071): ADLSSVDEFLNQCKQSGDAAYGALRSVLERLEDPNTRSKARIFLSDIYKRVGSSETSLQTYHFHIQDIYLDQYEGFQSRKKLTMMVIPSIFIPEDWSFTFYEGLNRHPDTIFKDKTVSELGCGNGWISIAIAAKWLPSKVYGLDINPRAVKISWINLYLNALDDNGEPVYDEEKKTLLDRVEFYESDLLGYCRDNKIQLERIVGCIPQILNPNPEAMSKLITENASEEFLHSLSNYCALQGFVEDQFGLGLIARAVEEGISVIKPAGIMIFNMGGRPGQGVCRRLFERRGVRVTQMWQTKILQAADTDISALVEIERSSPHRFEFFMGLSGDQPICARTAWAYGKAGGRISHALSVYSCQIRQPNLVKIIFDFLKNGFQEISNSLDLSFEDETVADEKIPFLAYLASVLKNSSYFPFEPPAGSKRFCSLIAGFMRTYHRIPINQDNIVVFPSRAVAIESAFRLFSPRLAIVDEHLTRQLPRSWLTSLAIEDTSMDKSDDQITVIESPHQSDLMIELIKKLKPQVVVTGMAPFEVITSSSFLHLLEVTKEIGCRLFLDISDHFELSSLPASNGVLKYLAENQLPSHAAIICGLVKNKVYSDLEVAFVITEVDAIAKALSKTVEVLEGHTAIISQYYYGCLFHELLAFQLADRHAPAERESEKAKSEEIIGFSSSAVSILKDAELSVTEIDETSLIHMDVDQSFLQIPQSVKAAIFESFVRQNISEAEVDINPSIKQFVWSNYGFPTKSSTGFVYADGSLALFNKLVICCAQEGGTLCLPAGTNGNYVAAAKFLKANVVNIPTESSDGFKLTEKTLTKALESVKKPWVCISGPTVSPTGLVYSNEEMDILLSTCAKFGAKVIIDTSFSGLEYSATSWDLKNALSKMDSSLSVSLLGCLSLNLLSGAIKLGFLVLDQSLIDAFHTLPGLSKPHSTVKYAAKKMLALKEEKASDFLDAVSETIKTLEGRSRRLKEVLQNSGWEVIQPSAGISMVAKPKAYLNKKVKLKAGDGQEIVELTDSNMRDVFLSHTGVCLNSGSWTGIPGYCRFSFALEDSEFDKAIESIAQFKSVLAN

T2: MMT from Hordeum vulgare (Hordeum vulgare, UniProt Q9MBC2)
T2 construct: gene MMT1; recombinant, probably pMALc2x (MBP fusion), E. coli
T2 sequence (Q9MBC2 1-1088): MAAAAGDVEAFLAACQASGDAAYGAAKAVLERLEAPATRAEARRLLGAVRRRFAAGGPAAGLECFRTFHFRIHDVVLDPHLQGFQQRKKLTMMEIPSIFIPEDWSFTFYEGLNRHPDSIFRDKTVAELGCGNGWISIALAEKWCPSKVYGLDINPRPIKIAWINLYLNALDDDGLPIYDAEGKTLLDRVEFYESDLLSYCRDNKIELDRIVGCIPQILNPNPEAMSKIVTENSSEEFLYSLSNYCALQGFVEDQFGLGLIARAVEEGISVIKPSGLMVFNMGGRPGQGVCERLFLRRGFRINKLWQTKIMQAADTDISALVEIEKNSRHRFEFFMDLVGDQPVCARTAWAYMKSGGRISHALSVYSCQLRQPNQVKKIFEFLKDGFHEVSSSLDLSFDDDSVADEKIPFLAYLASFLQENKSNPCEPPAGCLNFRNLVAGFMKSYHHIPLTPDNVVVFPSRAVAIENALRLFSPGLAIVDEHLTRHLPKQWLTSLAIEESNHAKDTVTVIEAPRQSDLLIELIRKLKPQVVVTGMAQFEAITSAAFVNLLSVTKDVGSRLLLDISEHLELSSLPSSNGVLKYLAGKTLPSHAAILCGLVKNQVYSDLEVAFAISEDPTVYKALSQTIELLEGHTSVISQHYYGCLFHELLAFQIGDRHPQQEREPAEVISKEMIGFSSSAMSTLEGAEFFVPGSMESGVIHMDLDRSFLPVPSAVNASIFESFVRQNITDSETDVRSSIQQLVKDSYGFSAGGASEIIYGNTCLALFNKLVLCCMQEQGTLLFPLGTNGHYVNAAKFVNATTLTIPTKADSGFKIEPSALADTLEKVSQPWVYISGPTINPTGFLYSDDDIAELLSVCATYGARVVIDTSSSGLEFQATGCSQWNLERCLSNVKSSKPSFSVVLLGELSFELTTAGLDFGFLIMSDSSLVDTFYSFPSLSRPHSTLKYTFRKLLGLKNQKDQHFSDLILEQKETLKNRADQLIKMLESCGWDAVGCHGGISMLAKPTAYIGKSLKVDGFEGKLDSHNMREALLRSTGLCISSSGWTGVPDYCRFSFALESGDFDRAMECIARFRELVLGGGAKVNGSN

B1: SaSDC (SaODC), S-methylmethionine decarboxylase (Sporobolus anglicus) (protein)
chain: MVGGSPMPMQAMLVVPGVKDRKVLSFKGDALKENDAIRSITSSTPAQRSAFHVLDLAKVVDLYRAWRRALPNVRPYYAVKCNSEPALLGALAALGAGFDCASHAEIDAVLALGVHPSSIVYANPCKPESHLEHAAAAGVNLTTYDSEEEVAKVRRCHPRCELLLRIKGPDDEEAQCDLGIKYGALADEVVPLLRAAQRAGVPVAGVAFNVGSPASRMDLYRDAIEAARAAFDAAAGLGMPPMRVLDIGGGFTAGATFEEAAAVINDALARHFGDLPYVEVISEPGRYFVKKAITLAARVIGKRTRGEVREYWIDDGVYGSFNCVIMDHYKPRPRPLVTPRPGEAKYTSTVFGPTCDSQDMVVTGYKLPEMSVGDWLVFDDMGAYTTAAGSKFNGFDTSDIKIYLAYST
notes: full-length ORF from transcriptome, synthetic gene, pMALc2x (MBP fusion), E. coli BL21(DE3), amylose resin

How the values were obtained:
[1] = molecular target: T1, MMT from Arabidopsis thaliana; assay: in vitro MMT assay; type: biochemical; conditions: 1 mM L-methionine, 1 mM S-adenosylmethionine, Tris-HCl 20 mM pH 7.2, DTT 1 mM, 25 °C
MMT from Hordeum vulgare = molecular target: T2, MMT from Hordeum vulgare; assay: in vitro MMT assay; type: biochemical; conditions: 1 mM L-methionine, 1 mM S-adenosylmethionine, Tris-HCl 20 mM pH 7.2, DTT 1 mM, 25 °C
[2] = substrate: C[S+](C)CC[C@H](N)C(=O)O; assay: NMR initial rates of DMSP-amine formation; type: biochemical, Sporobolus anglicus; conditions: Tris-HCl 20 mM pH 7.2, 0.1 mM pyridoxal 5'-phosphate, 25 °C

Row | Molecule | in vitro MMT assay [1] | in vitro MMT assay (MMT from Hordeum vulgare) | Km [2] [µM]
1 | CSCC[C@H](N)C(=O)O [L-methionine] | SaMMT1 in vitro activity was comparable to previously characterised plant MMTs from Arabidopsis thaliana | plant MMTs from Arabidopsis thaliana and Hordeum vulgare | –
2 | B1 | – | – | 2130 ± 200
